# Test results reported in patent US20250032425A1, “FIRST IN CLASS USE OF ESTROGEN RECEPTOR BETA AGONISTS IN TREATING ANGELMAN SYNDROME AND RELEVANT AUTISM SPECTRUM DISORDERS” (BROWN UNIVERSITY, priority 2023, published 2025).
# “Also recorded” adds a separate entry of the source.
# Assays:
# [1] = test system: rat primary OPCs deficient in UBE3A; experiment: Ki67 immunoblotting in primary rat OPCs with Ube3A siRNA knockdown; type: cell-based; settings: siUBE3A; 10 μM over 24 hours; vs siUBE3A alone
# Description: OPC purification followed our protocol previously described in Mei et al., 2016 (Identification of the Kappa-Opioid Receptor as a Therapeutic Target for Oligodendrocyte Remyelination. J Neurosci 36, 7925-7935), isolating cells from day 7 postnatal rat cortical hemispheres. The process began with mechanical dissection and papain digestion at 37° C. for 75 minutes, with occasional shaking. After trituration, cells were processed through immunopanning with 0.2% BSA, involving 30 minutes of negative and 45 minutes of positive selection. Selection plates were pre-treated with secondary antibodies and incubated with primary antibodies Ran-2, Gal-C (for negative) and O4 (for positive selection). Trypsin dissociated OPCs from the selection dish, and the reaction was stopped with 30% FBS, achieving >95% purity. OPCs were then plated on poly-1-lysine-coated coverslips in a nutrient-rich medium and incubated at 37° C. and 5% CO2 overnight. Post PDGF-AA removal, OPCs received either compound or control treatments for 2 days, with vehicle controls adjusted to match treatment concentrations.
# The siRNAs targeting UBE3A (Thermo Fisher, #4390815 and #4390816), estrogen receptors (Thermo Scientific #145909 for ESRβ, #145539 for ESRα, and #4390824 for GPER), and negative control (Thermo Scientific, #AM4615) were obtained commercially. […]
# [2] = test system: ERK/MAPK signaling pathway; experiment: ERK/MAPK and S6 activation in iOPCs by immunoblotting (phosphorylated to total ratio); type: cell-based, human
# Text: FIGS. 20A-20E depict the identification of ESR-β signaling pathway in regulating OPC proliferation impaired by UBE3A depletion. FIG. 20A: Immunofluorescence to track estrogen receptor (ESR) expression in OPCs, by staining of all 3 ESRs, ESR-α, ESR-β and GPER (top panels), in iOPCs co-labeled with UBE3A (middle panels) and DAPI; scale bar, 100 μm. […] FIG. 20B: Immunoblotting to assess OPC expression of individual ESRs, by analyzing protein levels of ESR-α, ESR-β and GPER in iOPCs treated with siNC or siUBE3A, normalized to GAPDH and expressed relative to the siNC condition (set as 1.0). After treatment with siUBE3A, expression of ESR-β was decreased, while expression of GPER was increased. n=5-6 experiments. FIG. 20C: The activation of the ERK/MAPK signaling pathway in OPCs, particularly downstream of ESR-β, was analyzed in iOPCs subjected to 6 knockdown conditions: siNC, siUBE3A, siESRα, siESRβ, and combinations of siUBE3A with siESRα or siESRβ. These were followed by treatment with vehicle control or the ESR-β agonist AC-186 (10 μM, 30 min). The activation of ERK and its substrate S6 was determined by the ratio of phosphorylated to total ERK and S6 levels, adjusted relative to the vehicle control group (standard value of 1.0). ERK phosphorylation and S6 phosphorylation was decreased in cells treated with siESRβ, or siESRβ and siUBE3A combined. n=3 experiments. FIG. 20D: Immunoblotting to evaluate the role of ERK/MAPK activation in the restoration of OPC proliferation following ESR-β activation, with the addition of ERK phosphorylation inhibitors U0126 or PD98059 to UBE3A-depleted OPCs, with or without AC-186 co-treatment (10 μM. 24 hours). The quantification of Ki67 expression and UBE3A levels, being normalized to β-tubulin (TUBB1) and compared to the siNC condition (value of 1.0). n=5 experiments. FIG. 20E: A schematic depicting the regulatory role of ESR-β signaling pathway in OPC proliferation, identified by combining genetic knockdown techniques and pharmacological interventions. Activation of ESR-β selectively triggers the ERK/MAPK pathway, as shown by ERK phosphorylation and the ERK substrate S6 activation, essential for cell proliferation. […] As applicable: statistical significance was determined using One-way ANOVA followed by post-hoc comparisons, with selected comparisons presented. Significance levels marked as *p<0.05. ** p<0.005. *** p<0.001. **** p<0.0001, ns not significant, across relevant comparisons.
# The siRNAs targeting UBE3A (Thermo Fisher, #4390815 and #4390816), estrogen receptors (Thermo Scientific #145909 for ESRβ, #145539 for ESRα, and #4390824 for GPER), and negative control (Thermo Scientific, #AM4615) were obtained commercially. The 10-20 nM final concentration was used with Lipofectamine RNAiMAX transfection reagent (Thermo Scientific #13778075) and incubated for at least 48 hours before the treatments of therapeutic compounds or other reagents.
# Cells were collected by fast spin down in centrifuge tubes before lysis in RIPA buffer (ThermoFisher, #89901) supplemented with proteinase inhibitor cocktail (Sigma-Aldrich, #5892791001) on ice. Lysates were then spun down at 15000 rpm for 10 mins, the supernatant was collected and mixed with 4× Laemmle sample buffer (Bio-Rad, #1610747) and cooked 10 mins before SDS-PAGE and transferred with Bio-Rad fast transfer system, the membranes were blocked for one hour in 1× Tris Buffered Saline (TBS) with 1% Casein buffer (Bio-Rad, #1610782) and incubated with primary antibodies overnight at 4 degrees. After 3 times washing in TBST washing buffers (ThermoFisher, #28352), the membranes were incubated with HRP conjugated antibodies and developed with Clarity Max™ Western ECL Substrate (Bio-Rad, #1705062) before being filmed in the iBright imaging system.
# [3] = test system: AS iOPCs differentiated into iOLs; experiment: Differentiation of AS patient-derived iOPCs into iOLs (MAG, CNPase, MBP); type: cell-based, human; settings: AC-186 10 μM or clemastine 2.5 μM, 72 hours
# [4] = UBE3A-depleted iOPCs, AC-186 10 μM, 30 min
compound,measurement,setting,value
Oc1ccc(C2(c3ccccc3F)CCC(F)(F)CC2)cc1 [AC-186],OPC proliferation (Ki67 expression),[1],rescues impaired proliferation; also recorded: rescued; also recorded: reversed; also recorded: rescue of OPC proliferation; also recorded: increased Ki67 expression
same,UBE3A levels,[2]; [4],remained unchanged
same,activity of ERK,[2]; [4],restored
same,activity of S6,[2]; [4],restored
same,effects on ERK/MAPK activation when ESR-α was knocked down,[2]; siESRα,did not reverse the effects of AC-186
same,effects on ERK/MAPK activation when ESR-β was knocked down,[2]; siESRβ,negated
same,"oligodendrocyte differentiation (MAG, CNPase, MBP)",[3],no impact on oligodendrocyte differentiation
